Assay results reported in US12447198B2, “Peptides and fragments for treating diabetes and associated metabolic diseases” (Betavive Ltd., priority 2021, dated 2025).

What was measured:
db/db mice = experiment: Serum insulin in db/db mice after long-term IGF-2 treatment; format: in vivo, mouse; conditions: 12,000 μg/kg daily dose for 68 days, measured 6.5 weeks after the end of treatment
Description: In this experiment, one group of db/db mice (labeled FA X1) was injected with 3000 μg/kg of IGF-2 once a day for 68 days, a second group of db/db mice (labeled FA X4) was injected with a daily dose of 12000 μg/kg of IGF-2 divided in two injections per day for 68 days, and a third group of db/db mice was injected with saline. Serum insulin levels were measured 6.5 weeks after the end of the 68 day treatment. Treatment with the 12,000 μg/kg daily dose increased serum insulin levels by about 50% with respect to the control.

β-MIN6 cells = experiment: Insulin secretion of β-MIN6 cells following glucose induction; format: cell-based, mouse; conditions: 1 week treatment; IGF-2 5 nM, 20 nM, 80 nM
Text: β-MIN6 cells serve as an in vitro model of mouse pancreatic islets. β-MIN6 cells were used as an in vitro model to measure the effects of treatment with IGF-2.

Substance: insulin-like growth factor 2 [IGF-2]
- increase of serum insulin levels with respect to the control (db/db mice): about 50%
- insulin secretion following glucose induction (β-MIN6 cells): increases insulin secretion (following glucose induction) in a dose-dependent manner
